The NIST ThermoML archive (doi:10.1016/j.jct.2015.08.013)

Assay: xn = mol fraction of the nth substance listed
Conditions: 100 kPa, Liquid; for mass density: Vibrating tube method; for viscosity: Capillary tube (Ostwald / Ubbelohde) method

O=C1CCCO1 [γ-butyrolactone] + CN1CCCC1=O
Conditions	mass density [kg/m3]	viscosity [mPa·s]
293.15 K, x2 = 0	1129.2	–
293.15 K, x2 = 0.1011	1117.01	–
293.15 K, x2 = 0.1484	1111.57	–
293.15 K, x2 = 0.2506	1100.29	–
293.15 K, x2 = 0.3027	1094.76	–
293.15 K, x2 = 0.4002	1084.79	–
293.15 K, x2 = 0.4953	1075.51	–
293.15 K, x2 = 0.5983	1065.98	–
293.15 K, x2 = 0.6977	1057.25	–
293.15 K, x2 = 0.8022	1048.51	–
293.15 K, x2 = 0.851	1044.56	–
293.15 K, x2 = 0.9418	1037.29	–
298.15 K, x2 = 0	1124.26	1.73
298.15 K, x2 = 0.1002	–	1.719
298.15 K, x2 = 0.1011	1112.14	–
298.15 K, x2 = 0.1484	1106.72	–
298.15 K, x2 = 0.2002	–	1.71
298.15 K, x2 = 0.2506	1095.51	–
298.15 K, x2 = 0.3027	1090	–
298.15 K, x2 = 0.3078	–	1.701
298.15 K, x2 = 0.3999	–	1.694
298.15 K, x2 = 0.4002	1080.08	–
298.15 K, x2 = 0.4953	1070.84	–
298.15 K, x2 = 0.4998	–	1.689
298.15 K, x2 = 0.5983	1061.35	–
298.15 K, x2 = 0.6003	–	1.685
298.15 K, x2 = 0.6977	1052.68	–
298.15 K, x2 = 0.7002	–	1.682
298.15 K, x2 = 0.8011	–	1.679
298.15 K, x2 = 0.8022	1043.99	–
298.15 K, x2 = 0.851	1040.04	–
298.15 K, x2 = 0.8998	–	1.678
298.15 K, x2 = 0.9418	1032.8	–
303.15 K, x2 = 0	1119.33	1.63
303.15 K, x2 = 0.1002	–	1.614
303.15 K, x2 = 0.1011	1107.27	–
303.15 K, x2 = 0.1484	1101.88	–
303.15 K, x2 = 0.2002	–	1.601
303.15 K, x2 = 0.2506	1090.7	–
303.15 K, x2 = 0.3027	1085.22	–
303.15 K, x2 = 0.3078	–	1.587
303.15 K, x2 = 0.3999	–	1.577
303.15 K, x2 = 0.4002	1075.32	–
303.15 K, x2 = 0.4953	1066.12	–
303.15 K, x2 = 0.4998	–	1.568
303.15 K, x2 = 0.5983	1056.67	–
303.15 K, x2 = 0.6003	–	1.559
303.15 K, x2 = 0.6977	1048.03	–
303.15 K, x2 = 0.7002	–	1.552
303.15 K, x2 = 0.8011	–	1.546
303.15 K, x2 = 0.8022	1039.38	–
303.15 K, x2 = 0.851	1035.46	–
303.15 K, x2 = 0.8998	–	1.541
303.15 K, x2 = 0.9418	1028.25	–
308.15 K, x2 = 0	1114.31	1.52
308.15 K, x2 = 0.1002	–	1.504
308.15 K, x2 = 0.1011	1102.38	–
308.15 K, x2 = 0.1484	1097.05	–
308.15 K, x2 = 0.2002	–	1.49
308.15 K, x2 = 0.2506	1085.98	–
308.15 K, x2 = 0.3027	1080.55	–
308.15 K, x2 = 0.3078	–	1.477
308.15 K, x2 = 0.3999	–	1.468
308.15 K, x2 = 0.4002	1070.75	–
308.15 K, x2 = 0.4953	1061.64	–
308.15 K, x2 = 0.4998	–	1.458
308.15 K, x2 = 0.5983	1052.28	–
308.15 K, x2 = 0.6003	–	1.45
308.15 K, x2 = 0.6977	1043.71	–
308.15 K, x2 = 0.7002	–	1.443
308.15 K, x2 = 0.8011	–	1.437
308.15 K, x2 = 0.8022	1035.14	–
308.15 K, x2 = 0.851	1031.26	–
308.15 K, x2 = 0.8998	–	1.433
308.15 K, x2 = 0.9418	1024.11	–
313.15 K, x2 = 0	1109.23	1.42
313.15 K, x2 = 0.1002	–	1.404
313.15 K, x2 = 0.1011	1097.36	–
313.15 K, x2 = 0.1484	1092.04	–
313.15 K, x2 = 0.2002	–	1.391
313.15 K, x2 = 0.2506	1081.02	–
313.15 K, x2 = 0.3027	1075.61	–
313.15 K, x2 = 0.3078	–	1.379
313.15 K, x2 = 0.3999	–	1.37
313.15 K, x2 = 0.4002	1065.84	–
313.15 K, x2 = 0.4953	1056.76	–
313.15 K, x2 = 0.4998	–	1.361
313.15 K, x2 = 0.5983	1047.44	–
313.15 K, x2 = 0.6003	–	1.354
313.15 K, x2 = 0.6977	1038.91	–
313.15 K, x2 = 0.7002	–	1.348
313.15 K, x2 = 0.8011	–	1.344
313.15 K, x2 = 0.8022	1030.36	–
313.15 K, x2 = 0.851	1026.5	–
313.15 K, x2 = 0.8998	–	1.34
313.15 K, x2 = 0.9418	1019.36	–
318.15 K, x2 = 0	1104.1	1.35
318.15 K, x2 = 0.1002	–	1.331
318.15 K, x2 = 0.1011	1092.31	–
318.15 K, x2 = 0.1484	1087.03	–
318.15 K, x2 = 0.2002	–	1.316
318.15 K, x2 = 0.2506	1076.08	–
318.15 K, x2 = 0.3027	1070.71	–
318.15 K, x2 = 0.3078	–	1.302
318.15 K, x2 = 0.3999	–	1.291
318.15 K, x2 = 0.4002	1061.01	–
318.15 K, x2 = 0.4953	1051.99	–
318.15 K, x2 = 0.4998	–	1.28
318.15 K, x2 = 0.5983	1042.73	–
318.15 K, x2 = 0.6003	–	1.271
318.15 K, x2 = 0.6977	1034.27	–
318.15 K, x2 = 0.7002	–	1.263
318.15 K, x2 = 0.8011	–	1.256
318.15 K, x2 = 0.8022	1025.76	–
318.15 K, x2 = 0.851	1021.91	–
318.15 K, x2 = 0.8998	–	1.251
318.15 K, x2 = 0.9418	1014.8	–
323.15 K, x2 = 0	1098.88	1.3
323.15 K, x2 = 0.1002	–	1.278
323.15 K, x2 = 0.1011	1087.72	–
323.15 K, x2 = 0.1484	1082	–
323.15 K, x2 = 0.2002	–	1.261
323.15 K, x2 = 0.2506	1071.16	–
323.15 K, x2 = 0.3027	1065.83	–
323.15 K, x2 = 0.3078	–	1.245
323.15 K, x2 = 0.3999	–	1.232
323.15 K, x2 = 0.4002	1056.23	–
323.15 K, x2 = 0.4953	1047.31	–
323.15 K, x2 = 0.4998	–	1.219
323.15 K, x2 = 0.5983	1038.15	–
323.15 K, x2 = 0.6003	–	1.208
323.15 K, x2 = 0.6977	1029.76	–
323.15 K, x2 = 0.7002	–	1.198
323.15 K, x2 = 0.8011	–	1.189
323.15 K, x2 = 0.8022	1021.34	–
323.15 K, x2 = 0.851	1017.51	–
323.15 K, x2 = 0.8998	–	1.182
323.15 K, x2 = 0.9418	1010.46	–
